Source: PubChem BioAssay (NCI)
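Abbreviation: GI50, concentration required for 50% inhibition of growth. TGI denotes the concentration required for complete inhibition of growth.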

How the values were obtained:
Assay in all cases: growth of human tumour cells (NCI), 384-well format
[1] = tested on: NCI/ADR-RES ovarian
[2] = tested on: MCF7 breast
[3] = tested on: U251 glioblastoma
[4] = tested on: TK-10 renal
[5] = tested on: MDA-MB-231 breast
[6] = tested on: HCT-15 colon
[7] = tested on: A498 renal
[8] = tested on: NCI-H322M lung
[9] = tested on: K-562 leukemia
[10] = tested on: OVCAR-3 ovarian
[11] = tested on: RPMI-8226 leukemia
[12] = tested on: NCI-H226 lung
[13] = tested on: OVCAR-4 ovarian
[14] = tested on: OVCAR-5 ovarian
[15] = tested on: KM12 colon
[16] = tested on: SW-620 colon
[17] = tested on: ACHN renal
[18] = tested on: RXF 393 renal
[19] = tested on: SF-268 CNS
[20] = tested on: MDA-MB-435 melanoma
[21] = tested on: NCI-H522 lung
[22] = tested on: UACC-62 melanoma
[23] = tested on: SF-539 CNS
[24] = tested on: MOLT-4 leukemia
[25] = tested on: HOP-92 NSCLC
[26] = tested on: T-47D breast
[27] = tested on: IGROV1 ovarian
[28] = tested on: 786-0 renal
[29] = tested on: SK-MEL-5 melanoma
[30] = tested on: NCI-H460 NSCLC
[31] = tested on: OVCAR-8 ovarian
[32] = tested on: SK-OV-3 ovarian
[33] = tested on: SNB-19 CNS
[34] = tested on: LOX IMVI melanoma
[35] = tested on: HOP-62 NSCLC
[36] = tested on: SF-295 CNS
[37] = tested on: CCRF-CEM leukemia
[38] = tested on: HCC-2998 colon
[39] = tested on: SN12C renal
[40] = tested on: M14 melanoma
[41] = tested on: PC-3 prostate
[42] = tested on: HL-60(TB) leukemia
[43] = tested on: DU-145 prostate
[44] = tested on: UO-31 renal
[45] = tested on: COLO 205 colon
[46] = tested on: HCT-116 colon
[47] = tested on: CAKI-1 renal
[48] = tested on: SK-MEL-2 melanoma
[49] = tested on: SK-MEL-28 melanoma
[50] = tested on: BT-549 breast
[51] = tested on: HT29 colon
[52] = tested on: UACC-257 melanoma
[53] = tested on: SR leukemia
[54] = tested on: NCI-H23 lung
[55] = tested on: MDA-MB-468 breast
[56] = tested on: MALME-3M melanoma
[57] = tested on: A549 NSCLC
[58] = tested on: SNB-75 CNS
[59] = tested on: EKVX NSCLC
[60] = tested on: HS 578T breast

COc1cc2c(cc1OC(C)C)[C@H](c1ccc(Cl)cc1)N(c1ccc(N(C)CC3CCC(N4CCN(C)C(=O)C4)CC3)cc1)C(=O)C2 (stereo not given in full)
GI50 [1]: 1770 nM
TGI [1]: 3220 nM
GI50 [2]: 378 nM
TGI [2]: 1570 nM
GI50 [3]: 1750 nM
TGI [3]: 3160 nM
GI50 [4]: 1820 nM
TGI [4]: 3310 nM
GI50 [5]: 1800 nM
TGI [5]: 3200 nM
GI50 [6]: 1820 nM
TGI [6]: 3260 nM
GI50 [7]: 240 nM
TGI [7]: 1320 nM
GI50 [8]: 1710 nM
TGI [8]: 3270 nM
GI50 [9]: 1760 nM
TGI [9]: 3170 nM
GI50 [10]: 1690 nM
TGI [10]: 3080 nM
GI50 [11]: 1530 nM
TGI [11]: 2880 nM
GI50 [12]: 134 nM
TGI [12]: 374 nM
GI50 [13]: 1760 nM
TGI [13]: 3180 nM
GI50 [14]: 1850 nM
TGI [14]: 3310 nM
GI50 [15]: 1900 nM
TGI [15]: 3350 nM
GI50 [16]: 1910 nM
TGI [16]: 3360 nM
GI50 [17]: 243 nM
TGI [17]: 1280 nM
GI50 [18]: 1690 nM
TGI [18]: 3070 nM
GI50 [19]: 1900 nM
TGI [19]: 3340 nM
GI50 [20]: 2010 nM
TGI [20]: 3460 nM
GI50 [21]: 1860 nM
TGI [21]: 3330 nM
GI50 [22]: 92.4 nM
TGI [22]: 1580 nM
GI50 [23]: 1740 nM
TGI [23]: 3140 nM
GI50 [24]: 37.8 nM
TGI [24]: 138 nM
GI50 [25]: 1590 nM
TGI [25]: 2960 nM
GI50 [26]: 1760 nM
TGI [26]: 3230 nM
GI50 [27]: 1370 nM
TGI [27]: 2700 nM
GI50 [28]: 1720 nM
TGI [28]: 3120 nM
GI50 [29]: 1300 nM
TGI [29]: 2580 nM
GI50 [30]: 316 nM
TGI [30]: 1420 nM
GI50 [31]: 1820 nM
TGI [31]: 3250 nM
GI50 [32]: 1580 nM
TGI [32]: 2940 nM
GI50 [33]: 1940 nM
TGI [33]: 3490 nM
GI50 [34]: 946 nM
TGI [34]: 2130 nM
GI50 [35]: 2070 nM
TGI [35]: 3520 nM
GI50 [36]: 1620 nM
TGI [36]: 2990 nM
GI50 [37]: 1940 nM
TGI [37]: 3360 nM
GI50 [38]: 1730 nM
TGI [38]: 3120 nM
GI50 [39]: 1810 nM
TGI [39]: 3220 nM
GI50 [40]: 943 nM
TGI [40]: 2160 nM
GI50 [41]: 1790 nM
TGI [41]: 3190 nM
GI50 [42]: 1960 nM
TGI [42]: 3380 nM
GI50 [43]: 1920 nM
TGI [43]: 3510 nM
GI50 [44]: 288 nM
TGI [44]: 1310 nM
GI50 [45]: 1860 nM
TGI [45]: 3290 nM
GI50 [46]: 349 nM
TGI [46]: 1490 nM
GI50 [47]: 146 nM
TGI [47]: 1180 nM
GI50 [48]: 1810 nM
TGI [48]: 3210 nM
GI50 [49]: 1790 nM
TGI [49]: 3190 nM
GI50 [50]: 1580 nM
TGI [50]: 2940 nM
GI50 [51]: 1790 nM
TGI [51]: 3220 nM
GI50 [52]: 1350 nM
TGI [52]: 2640 nM
GI50 [53]: 29.1 nM
TGI [53]: 101 nM
GI50 [54]: 1930 nM
TGI [54]: 4370 nM
GI50 [55]: 2030 nM
TGI [55]: 3470 nM
GI50 [56]: 1180 nM
TGI [56]: 2430 nM
GI50 [57]: 387 nM
TGI [57]: 1550 nM

NS(=O)(=O)OC[C@H]1C[C@@H](Nc2ccnc3cc(-c4cccc(SC(F)(F)F)c4)nn23)[C@H](O)[C@@H]1O
GI50 [1]: 129 nM
TGI [1]: 260 nM
GI50 [2]: 11.5 nM
TGI [2]: 31.2 nM
GI50 [3]: < 10 nM
TGI [3]: < 10 nM
GI50 [4]: 27.3 nM
TGI [4]: 85.3 nM
GI50 [5]: < 10 nM
TGI [5]: 23.4 nM
GI50 [58]: 19 nM
TGI [58]: 34.4 nM
GI50 [6]: 33.2 nM
TGI [6]: 117 nM
GI50 [7]: < 10 nM
TGI [7]: 21.2 nM
GI50 [8]: 11.3 nM
TGI [8]: 24.2 nM
GI50 [9]: < 10 nM
TGI [9]: < 10 nM
GI50 [10]: < 10 nM
TGI [10]: < 10 nM
GI50 [11]: 202 nM
TGI [11]: 348 nM
GI50 [12]: < 10 nM
TGI [12]: < 10 nM
GI50 [13]: 15.9 nM
TGI [13]: 29.9 nM
GI50 [14]: 12.8 nM
TGI [14]: 34.2 nM
GI50 [15]: 25.5 nM
TGI [15]: 59.7 nM
GI50 [59]: 14 nM
TGI [59]: 28 nM
GI50 [16]: 14.4 nM
TGI [16]: 27.8 nM
GI50 [17]: 59 nM
TGI [17]: 190 nM
GI50 [18]: < 10 nM
TGI [18]: 18.4 nM
GI50 [19]: < 10 nM
TGI [19]: < 10 nM
GI50 [20]: 17.4 nM
TGI [20]: 32.7 nM
GI50 [21]: < 10 nM
TGI [21]: < 10 nM
GI50 [22]: 17 nM
TGI [22]: 32.2 nM
GI50 [23]: < 10 nM
TGI [23]: < 10 nM
GI50 [60]: 14.2 nM
TGI [60]: 28.4 nM
GI50 [24]: 12.9 nM
TGI [24]: 26 nM
GI50 [25]: 12.2 nM
TGI [25]: 25.4 nM
GI50 [26]: < 10 nM
TGI [26]: 12.4 nM
GI50 [27]: 15.1 nM
TGI [27]: 30.1 nM
GI50 [28]: 18.7 nM
TGI [28]: 36.1 nM
GI50 [29]: < 10 nM
TGI [29]: < 10 nM
GI50 [30]: 147 nM
TGI [30]: 286 nM
GI50 [31]: < 10 nM
TGI [31]: 16.5 nM
GI50 [32]: 12.8 nM
TGI [32]: 25.9 nM
GI50 [33]: < 10 nM
TGI [33]: 20.7 nM
GI50 [34]: < 10 nM
TGI [34]: < 10 nM
GI50 [35]: < 10 nM
TGI [35]: 11.4 nM
GI50 [36]: 48.1 nM
TGI [36]: 166 nM
GI50 [37]: < 10 nM
TGI [37]: < 10 nM
GI50 [38]: 13.1 nM
TGI [38]: 27.4 nM
GI50 [39]: 21.4 nM
TGI [39]: 43.7 nM
GI50 [40]: 15.8 nM
TGI [40]: 30.7 nM
GI50 [41]: 17.5 nM
TGI [41]: 32.4 nM
GI50 [42]: < 10 nM
TGI [42]: < 10 nM
GI50 [43]: < 10 nM
TGI [43]: 44.9 nM
GI50 [44]: 20.5 nM
TGI [44]: 42.1 nM
GI50 [45]: < 10 nM
TGI [45]: 14.9 nM
GI50 [46]: < 10 nM
TGI [46]: 11.3 nM
GI50 [47]: 18.9 nM
TGI [47]: 36 nM
GI50 [49]: < 10 nM
TGI [49]: < 10 nM
GI50 [50]: < 10 nM
TGI [50]: 16.1 nM
GI50 [51]: 94.7 nM
TGI [51]: 222 nM
GI50 [52]: 14.7 nM
TGI [52]: 28.6 nM
GI50 [54]: 19.3 nM
TGI [54]: 51.3 nM
GI50 [55]: < 10 nM
TGI [55]: < 10 nM
GI50 [56]: < 10 nM
TGI [56]: 21.5 nM
GI50 [57]: 59.6 nM
TGI [57]: 191 nM
